The subject of assay [1] is tissue of medial septum nuclei. Conditions: rat medial septum nuclei acetylcholinergic neuron; Reference 1; cited from earlier work.
Assay [2] has as its system tissue of medial septum nuclei. The experiment in a line: neurotrophic activity: acceleration of acetylcholine synthesis in medial septum nuclei tissue (method of Ojika et al.). Conditions: qualitative statement, compared with rat-derived HCNP; no figures given. It is filed as cell-based. The text has this:
The neurotrophic activity (also called neurotrophic factor activity) refers to, for example, an action of regulating differentiation and maturation of neuronal cells, namely, an action of accelerating the acetylcholine synthesis in the tissue of medial septum nuclei which is rich in cholinergic neurons.
The human-derived neurotrophic peptide or its derivatives of the present invention can regulate differentiation and maturation of neuronal cells. That is, the neurotrophic peptide and derivatives thereof accelerate the acetylcholine synthesis in the tissue of medial septum nuclei. The biological activity can be determined by the method of Ojika, K., et al. (Reference 66).

We go through two molecules from EP0511816B1, “Neurotrophic peptide derivative” (SUMITOMO PHARMACEUTICALS COMPANY, LIMITED, priority 1991, dated 1999).

Ends that are not written are not given here. Peptide text beside a SMILES is read from it.

As to “AADISQWAGPL [HCNP, Hippocampal cholinergic neurotrophic peptide of 11 amino acid residues isolated from hippocampal tissue of neonatal rat by Ojika et al]”, the production of acetylcholine entry in assay [1] was “enhances production of acetylcholine”.

`CC(C)C[C@H](NC(=O)[C@@H]1CCCN1C(=O)CNC(=O)[C@H](CO)NC(=O)[C@H](Cc1c[nH]c2ccccc12)NC(=O)[C@H](CCCCN)NC(=O)[C@H](CO)NC(=O)[C@H](CC(C)C)NC(=O)[C@H](CC(=O)O)NC(=O)[C@@H](NC(=O)[C@@H]1CCCN1)C(C)C)C(=O)O` [hHCNP] (H-PVDLSKWSGPL-OH): in assay [2], the neurotrophic activity entry was “neurotrophic activity similar to rat-derived HCNP was noted”.
